Source: patent US4908352A, “Urotensin peptides” (The Salk Institute for Biological Studies, priority 1987, dated 1990)

Key:
[1] = Vasodilatory-hypotensive activity, general procedure of Example III (species not separated); type: in vivo; conditions: for mesenteric blood flow / systemic blood pressure / vasodilatory-hypotensive activity: general procedure of Example III; for vasodilatory-hypotensive activity: mammalian
Text: (§1) The urotensin peptide from Example II is examined for effects on the secretion of ACTH and β-endorphin in vitro and also examined in vivo. A low potency (4%) to stimulate the secretion of ACTH and β-endorphinby cultured rat pituitary cells is observed. The peptide also stimulates ACTH and B-END-LI secretion in vivo in several rat preparations. UI activity of the peptide is evident in the isolated rat hind limb assay, Lederis, K. et al. "Effects and Assay of Urotensin I on the Perfused Hind Limb of the Rat", Gen. Comp. Endocrinol., 24:10-16, 1974. In vivo hypotensive activity of extracted peptides is measured in anaesthetized rats, Lederis, K. and Medakovic, M. "Pharmacological Observations on the Hypotensive Actin of Extracts of Teleost Fish Urophyses (Urotensin I) in the Rat", Br. J. Pharmacol. 51:315-324, 1974, and in anaesthetized dogs, MacCannell and Lederis, "Dilatation of the Mesenteric Vascular Bed of the Dog Produced by a Peptide, Urotensin I", J. Pharm. Exp. Ther. 203:38-46, 1977.

[2] = ACTH and β-endorphin secretion, general procedure of Example III (in vitro / in vivo not separated)
Text: as §1

[3] = test system: cultured rat pituitary cells; test: Secretion of ACTH and β-endorphin by cultured rat pituitary cells; type: cell-based; conditions: relative potency, reference not named
Text: as §1

[4] = ACTH and B-END-LI secretion in vivo in several rat preparations
Text: as §1

[5] = test system: isolated mesenteric artery strips of the rat; test: Isolated mesenteric artery strips of the rat
Text: The synthetic peptides described above with respect to Example I are generally equipotent with the extracted and purified peptide, as tested in the anaesthetized dog in vivo and when tested in isolated mesenteric artery strips of the rat according to Muramatsu, I., Miura, A., Fujiwara, M. and Lederis, K., Gen. Comp. Endocrinol. 45:446-452, 1981.

mesenteric vascular bed = test: In vivo hypotensive activity / mesenteric vasodilatation in anaesthetized dogs; design: species or system dog
Text: as §1
In the pentobarbital-anaesthetized dog, the threshold dose of Maggy UI for mesenteric vasodilatation, when given close arterially into the cephalic mesenteric A, is between 0.001 and 0.01 μg.

[6] = In vivo hypotensive activity in anaesthetized rats; conditions: anaesthetized rat
Text: as §1

teleost fish pituitaries = test: Secretion of ACTH by teleost fish pituitaries
[7] = test system: Perfused Hind Limb of the Rat; test: Isolated rat hind limb assay (UI activity)
Text: as §1

[8] = pentobarbital-anaesthetized dog, doses of 0.1-0.5 μg

**Q.** What does the source list for “Ac-SEEPPMSIDLTFHMLRNMIHRAKMEGEREQALINRNLLDEV-NH2 [IV]”?
**A.** mesenteric blood flow [1]: very significant increasing; systemic blood pressure [1]: lowering; vasodilatory-hypotensive activity [1]: causes vasodilatory-hypotensive activity; secretion of ACTH and β-END-LI ([2]; general procedure of Example III): stimulates

**Q.** With “H-SEEPPMSIDLTFHMLRNMIHRAKMEGER-NH2 [Example V, H-Ser-Glu-Glu-Pro-Pro-Met-Ser-Ile-Asp-Leu-Thr-Phe-His-Met-Leu-Arg-Asn-Met- Ile-His-Arg-Ala-Lys-Met-Glu-Gly-Glu-Arg-NH2]” as the substance, how does the mesenteric blood flow [1] read?
**A.** increasing

**Q.** What about the systemic blood pressure [1] of the same substance?
**A.** lowering

**Q.** What about the vasodilatory-hypotensive activity [1] of the same substance?
**A.** significant

**Q.** What does the source list for “H-SEEPPMSIDLTFHMLRNMIHRAKMEGEREQALINRNLLDEV-NH2 [Maggy UI]”?
**A.** potency to stimulate the secretion of ACTH and β-endorphin [3]: 4%; blood pressure ([1]; summary statement): substantially lower blood pressure for an extended time period; ACTH and B-END-LI secretion in vivo [4]: stimulates; activity compared with the extracted and purified peptide [5]: not significantly different; blood pressure (mesenteric vascular bed; anaesthetized dog): modest but sustained depression of the blood pressure; dilatation of vascular beds other than the mesenteric (mesenteric vascular bed; anaesthetized dog): does not dilate other vascular beds; activity compared with the extracted and purified peptide (mesenteric vascular bed; anaesthetized dog in vivo): not significantly different; accompanying change in blood pressure (decrease) (mesenteric vascular bed; [8]): about 10%; mesenteric flow (mesenteric vascular bed; [8]): significant increase; blood pressure [6]: more marked fall in blood pressure; potency in stimulating the secretion of ACTH compared with amunine (teleost fish pituitaries): somewhat more potent than amunine; ACTH and β-endorphin activities ([2]; in vitro and in vivo (summary statement)): stimulate ACTH and β-endorphin activities in vitro and in vivo; UI activity [7]: evident
